{"source": "patent US7012041B2", "about": "“Phenylpyridazinones” (Bayer AG, priority 1995, dated 2006)", "type_in_all_cases": "in vivo", "key": {"Chenopodium [1]": {"system": "Chenopodium", "assay": "Post-emergence test/greenhouse", "conditions": "after three weeks", "procedure": "(§1) • Solvent: 5 parts by weight of acetone • Emulsifier: 1 part by weight of alkylaryl polyglycol ether\n(§2) To produce a suitable preparation of active compound, 1 part by weight of active compound is mixed with the stated amount of solvent, the stated amount of emulsifier is added and the concentrate is diluted with water to the desired concentration.\n(§3) Test plants which have a height of 5–15 cm are sprayed with the preparation of the active compound in such a way as to apply the particular amounts of active compound desired per unit area.\n(§4) After three weeks, the degree of damage to the plants is rated in % damage by comparison with the development of the untreated control.\n(§5) The figures denote: • 0%=no effect (like untreated control) • 100%=total destruction"}, "Amaranthus": {"system": "Amaranthus", "assay": "Post-emergence test/greenhouse", "conditions": "after three weeks", "procedure": "as §1, §2, §3, §4, §5"}, "Wheat": {"system": "Wheat", "assay": "Post-emergence test/greenhouse", "conditions": "after three weeks", "procedure": "as §1, §2, §3, §4, §5"}, "Veronica": {"system": "Veronica", "assay": "Post-emergence test/greenhouse", "conditions": "after three weeks", "procedure": "as §1, §2, §3, §4, §5"}, "Polygonum": {"system": "Polygonum", "assay": "Post-emergence test/greenhouse", "conditions": "after three weeks", "procedure": "as §1, §2, §3, §4, §5"}, "Datura": {"system": "Datura", "assay": "Post-emergence test/greenhouse", "conditions": "after three weeks", "procedure": "as §1, §2, §3, §4, §5"}, "Chenopodium [2]": {"system": "Chenopodium", "assay": "Pre-emergence test/greenhouse", "conditions": "after three weeks", "procedure": "as §1, §2\n(§6) Seeds of the test plants are sown in normal soil. After 24 hours, the soil is watered or sprayed with the preparation of the active compound. It is advantageous to keep the amount of water per unit area constant. The concentration of the active compound in the preparation is immaterial, only the amount of active compound applied per unit area matters.\nas §4, §5"}, "Sunflower": {"system": "Sunflower", "assay": "Pre-emergence test/greenhouse", "conditions": "after three weeks", "procedure": "as §1, §2, §6, §4, §5"}, "Abutilon": {"system": "Abutilon", "assay": "Pre-emergence test/greenhouse", "conditions": "for % damage Abutilon: after three weeks; for activity against Abutilon (% damage): application rate between 125 and 500 g/ha, span over the named compounds", "procedure": "as §1, §2, §6, §4, §5"}, "Maize": {"system": "Maize", "assay": "Pre-emergence test/greenhouse", "conditions": "after three weeks", "procedure": "as §1, §2, §6, §4, §5"}, "Galinsoga": {"system": "Galinsoga", "assay": "Pre-emergence test/greenhouse", "conditions": "after three weeks", "procedure": "as §1, §2, §6, §4, §5"}, "Solanum": {"system": "Solanum", "assay": "Pre-emergence test/greenhouse", "conditions": "after three weeks", "procedure": "as §1, §2, §6, §4, §5"}}}
{"smiles": "C#CCOc1cc(-n2ncc(C)cc2=O)c(F)cc1C#N", "note": "[Example 37]", "values": [{"measurement": "% damage Chenopodium", "setting": "Chenopodium [1]; 125 g ai/ha", "result": 100, "unit": "%"}, {"measurement": "% damage Amaranthus", "setting": "Amaranthus; 125 g ai/ha", "result": 100, "unit": "%"}, {"measurement": "% damage Wheat", "setting": "Wheat; 125 g ai/ha", "result": 20, "unit": "%"}, {"measurement": "% damage Veronica", "setting": "Veronica; 125 g ai/ha", "result": 100, "unit": "%"}, {"measurement": "% damage Polygonum", "setting": "Polygonum; 125 g ai/ha", "result": 100, "unit": "%"}, {"measurement": "% damage Datura", "setting": "Datura; 125 g ai/ha", "result": 100, "unit": "%"}]}
{"smiles": "C#CCOc1cc(-n2nc(C)ccc2=O)c(F)cc1C#N", "note": "[Example 7, 2-(2-fluoro-4-cyano-5-propargyloxy-phenyl)-6-methyl-pyridazin-3-one]", "values": [{"measurement": "% damage Chenopodium", "setting": "Chenopodium [2]; 250 g ai/ha", "result": 100, "unit": "%"}, {"measurement": "% damage Sunflower", "setting": "Sunflower; 250 g ai/ha", "result": 20, "unit": "%"}, {"measurement": "% damage Abutilon", "setting": "Abutilon; 250 g ai/ha", "result": 100, "unit": "%"}, {"measurement": "activity against Abutilon (% damage)", "setting": "Abutilon", "result": 100, "unit": "%"}, {"measurement": "% damage Maize", "setting": "Maize; 250 g ai/ha", "result": 0, "unit": "%"}, {"measurement": "% damage Galinsoga", "setting": "Galinsoga; 250 g ai/ha", "result": 95, "unit": "%"}, {"measurement": "% damage Solanum", "setting": "Solanum; 250 g ai/ha", "result": 100, "unit": "%"}]}
{"smiles": "C#CCOc1cc(-n2ncc(N(C)C)c(Cl)c2=O)c(F)cc1C#N", "note": "[Example 41]", "values": [{"measurement": "% damage Chenopodium", "setting": "Chenopodium [2]; 125 g ai/ha", "result": 100, "unit": "%"}, {"measurement": "% damage Sunflower", "setting": "Sunflower; 125 g ai/ha", "result": 0, "unit": "%"}, {"measurement": "% damage Abutilon", "setting": "Abutilon; 125 g ai/ha", "result": 100, "unit": "%"}, {"measurement": "activity against Abutilon (% damage)", "setting": "Abutilon", "result": 100, "unit": "%"}, {"measurement": "% damage Maize", "setting": "Maize; 125 g ai/ha", "result": 10, "unit": "%"}, {"measurement": "% damage Galinsoga", "setting": "Galinsoga; 125 g ai/ha", "result": 100, "unit": "%"}, {"measurement": "% damage Solanum", "setting": "Solanum; 125 g ai/ha", "result": 100, "unit": "%"}, {"measurement": "% damage Chenopodium", "setting": "Chenopodium [1]; 250 g ai/ha", "result": 90, "unit": "%"}, {"measurement": "% damage Amaranthus", "setting": "Amaranthus; 250 g ai/ha", "result": 60, "unit": "%"}, {"measurement": "% damage Wheat", "setting": "Wheat; 250 g ai/ha", "result": 20, "unit": "%"}, {"measurement": "% damage Veronica", "setting": "Veronica; 250 g ai/ha", "result": 100, "unit": "%"}, {"measurement": "% damage Polygonum", "setting": "Polygonum; 250 g ai/ha", "result": 100, "unit": "%"}, {"measurement": "% damage Datura", "setting": "Datura; 250 g ai/ha", "result": 100, "unit": "%"}]}
{"smiles": "CCS(=O)(=O)Nc1cc(-n2ncc(C)cc2=O)c(Cl)cc1Cl", "note": "[Example 34]", "values": [{"measurement": "% damage Chenopodium", "setting": "Chenopodium [2]; 500 g ai/ha", "result": 100, "unit": "%"}, {"measurement": "% damage Sunflower", "setting": "Sunflower; 500 g ai/ha", "result": 20, "unit": "%"}, {"measurement": "% damage Abutilon", "setting": "Abutilon; 500 g ai/ha", "result": 100, "unit": "%"}, {"measurement": "activity against Abutilon (% damage)", "setting": "Abutilon", "result": 100, "unit": "%"}, {"measurement": "% damage Maize", "setting": "Maize; 500 g ai/ha", "result": 0, "unit": "%"}, {"measurement": "% damage Galinsoga", "setting": "Galinsoga; 500 g ai/ha", "result": 100, "unit": "%"}, {"measurement": "% damage Solanum", "setting": "Solanum; 500 g ai/ha", "result": 90, "unit": "%"}]}
{"smiles": "C#CC(CC)Oc1cc(-n2nc(C)ccc2=O)c(F)cc1C#N", "note": "(stereo not shown) [Example 29]", "values": [{"measurement": "% damage Chenopodium", "setting": "Chenopodium [2]; 500 g ai/ha", "result": 100, "unit": "%"}, {"measurement": "% damage Sunflower", "setting": "Sunflower; 500 g ai/ha", "result": 0, "unit": "%"}, {"measurement": "% damage Abutilon", "setting": "Abutilon; 500 g ai/ha", "result": 100, "unit": "%"}, {"measurement": "activity against Abutilon (% damage)", "setting": "Abutilon", "result": 100, "unit": "%"}, {"measurement": "% damage Maize", "setting": "Maize; 500 g ai/ha", "result": 0, "unit": "%"}, {"measurement": "% damage Galinsoga", "setting": "Galinsoga; 500 g ai/ha", "result": 100, "unit": "%"}, {"measurement": "% damage Solanum", "setting": "Solanum; 500 g ai/ha", "result": 100, "unit": "%"}]}
{"smiles": "Cc1cnn(-c2cc(OC(C)C)c(C#N)cc2F)c(=O)c1", "note": "[Example 36]", "values": [{"measurement": "% damage Chenopodium", "setting": "Chenopodium [2]; 250 g ai/ha", "result": 100, "unit": "%"}, {"measurement": "% damage Abutilon", "setting": "Abutilon; 250 g ai/ha", "result": 100, "unit": "%"}, {"measurement": "activity against Abutilon (% damage)", "setting": "Abutilon", "result": 100, "unit": "%"}, {"measurement": "% damage Maize", "setting": "Maize; 250 g ai/ha", "result": 10, "unit": "%"}, {"measurement": "% damage Galinsoga", "setting": "Galinsoga; 250 g ai/ha", "result": 90, "unit": "%"}, {"measurement": "% damage Solanum", "setting": "Solanum; 250 g ai/ha", "result": 100, "unit": "%"}]}
{"smiles": "Cc1cnn(-c2ccccc2)c(=O)c1Br", "note": "[(B), 4-Bromo-5-methyl-2-phenyl-pyridazin-3-one, reference compound]", "values": [{"measurement": "% damage Chenopodium", "setting": "Chenopodium [2]; 500 g ai/ha", "result": 50, "unit": "%"}, {"measurement": "% damage Sunflower", "setting": "Sunflower; 500 g ai/ha", "result": 0, "unit": "%"}, {"measurement": "% damage Abutilon", "setting": "Abutilon; 500 g ai/ha", "result": 0, "unit": "%"}, {"measurement": "% damage Maize", "setting": "Maize; 500 g ai/ha", "result": 0, "unit": "%"}, {"measurement": "% damage Galinsoga", "setting": "Galinsoga; 500 g ai/ha", "result": 30, "unit": "%"}, {"measurement": "% damage Solanum", "setting": "Solanum; 500 g ai/ha", "result": 50, "unit": "%"}, {"measurement": "% damage Chenopodium", "setting": "Chenopodium [1]; 250 g ai/ha", "result": 50, "unit": "%"}, {"measurement": "% damage Amaranthus", "setting": "Amaranthus; 250 g ai/ha", "result": 30, "unit": "%"}, {"measurement": "% damage Wheat", "setting": "Wheat; 250 g ai/ha", "result": 30, "unit": "%"}, {"measurement": "% damage Veronica", "setting": "Veronica; 250 g ai/ha", "result": 40, "unit": "%"}, {"measurement": "% damage Polygonum", "setting": "Polygonum; 250 g ai/ha", "result": 50, "unit": "%"}, {"measurement": "% damage Datura", "setting": "Datura; 250 g ai/ha", "result": 80, "unit": "%"}]}
{"smiles": "CCS(=O)(=O)Nc1cc(-n2ncc(NC)c(Cl)c2=O)c(F)cc1C#N", "note": "[Example 25]", "values": [{"measurement": "% damage Chenopodium", "setting": "Chenopodium [2]; 500 g ai/ha", "result": 90, "unit": "%"}, {"measurement": "% damage Abutilon", "setting": "Abutilon; 500 g ai/ha", "result": 100, "unit": "%"}, {"measurement": "activity against Abutilon (% damage)", "setting": "Abutilon", "result": 100, "unit": "%"}, {"measurement": "% damage Maize", "setting": "Maize; 500 g ai/ha", "result": 0, "unit": "%"}, {"measurement": "% damage Galinsoga", "setting": "Galinsoga; 500 g ai/ha", "result": 100, "unit": "%"}, {"measurement": "% damage Solanum", "setting": "Solanum; 500 g ai/ha", "result": 60, "unit": "%"}]}
